Measured values published in patent publication US8455688B2, “HDAC inhibitors” (Lixte Biotechnology, Inc., priority 2007, dated 2013).
In brackets after ≈: the same amount, converted by molar mass. Like-named read-outs stand apart in the source and are kept apart here.

Experiments:
C. albicans = test: Broth dilution antifungal susceptibility testing, C. albicans; assay type: cell-based, Candida albicans; conditions: Candida albicans, 50% reduction in turbidity, read-out: minimum inhibitory concentration (MIC)
Protocol: (§1) A total of 23 isolates were tested to include 3 Candida albicans, 3 Candida glabrata, 3 Cryptococcus neoformans, 3 Aspergillus fumigatus, 3 Rhizopus oryzae, 3, Fusarium solani, 3 Pseudallescheria boydii, and 2 […]. All isolates were clinical isolates submitted to the Fungus Testing Laboratory for evaluation. Antifungal susceptibility testing was accomplished according to the methods outlined in the National Committee for Clinical Laboratory Standards, M-27A2, Reference Method for Broth Dilution Antifungal Susceptibility Testing of Yeasts; Approved Standard, and M38-A “Reference Method for Broth Dilution Antifungal Susceptibility Testing of Conidium-Forming Filamentous Fungi; Approved Standard”. This includes testing in RPMI-1640 with glutamine and without bicarbonate, an inoculum size of 0.5-2.5×10^3 for yeasts or […] for moulds, and incubation at 35° C. for 24 and 48 hours. […] Drug concentrations were 0.125-64 μg/ml. A 10 mg portion of each powder was weighed out and added to 1 ml of 100% DMSO for compound 205. The resulting concentration of […] was diluted to a working concentration of 6400 μg/ml for compound 205 in 100% DMSO. All subsequent dilutions were also made using the respective diluents. Final testing concentrations ranged from 0.125-64 μg/ml. The NCCLS recommended medium RPMI-1640 (Hardy Diagnostics, Santa Monica, Calif.) was utilized as the test medium. All isolates in this study were clinical isolates received in the Fungus Testing Laboratory for standard antifungal susceptibility testing and/or identification. Isolates, which were not sent for identification, were confirmed to assure testing integrity. A total of 23 were tested to include 3 Candida albicans, 3 Candida glabrata, 3 Cryptococcus neoformans, 3 Aspergillus fumigatus, 3 Rhizopus oryzae, 3, Fusarium solani, 3 Pseudallescheria boydii, and 2 […]. Minimum inhibitory concentrations (MIC) were determined at the first 24-hour interval where growth could be determined in the drug-free control tube.

C. glabrata = test: Broth dilution antifungal susceptibility testing, C. glabrata; assay type: cell-based, Candida glabrata; conditions: Nakaseomyces glabratus, 50% reduction in turbidity, read-out: minimum inhibitory concentration (MIC)
Protocol: as §1

C. neoformans = test: Broth dilution antifungal susceptibility testing, C. neoformans; assay type: cell-based; conditions: Cryptococcus neoformans, 50% reduction in turbidity, read-out: minimum inhibitory concentration (MIC)
Protocol: as §1

R. arrhizus = test: Broth dilution antifungal susceptibility testing, R. arrhizus; assay type: cell-based, Rhizopus oryzae; conditions: Rhizopus arrhizus, 80% inhibition, read-out: minimum inhibitory concentration (MIC)
Protocol: as §1

F. solani = test: Broth dilution antifungal susceptibility testing, F. solani; assay type: cell-based; conditions: Fusarium solani, 80% inhibition, read-out: minimum inhibitory concentration (MIC)
Protocol: as §1

S. apiospermum = test: Broth dilution antifungal susceptibility testing, S. apiospermum; assay type: cell-based, Pseudallescheria boydii; conditions: Scedosporium apiospermum, 80% inhibition, read-out: minimum inhibitory concentration (MIC)
Protocol: as §1

A. fumigatus = test: Broth dilution antifungal susceptibility testing, A. fumigatus; assay type: cell-based, Aspergillus fumigatus; conditions: Aspergillus fumigatus, 80% inhibition, read-out: minimum inhibitory concentration (MIC)
Protocol: as §1

T. rubrum = test: Broth dilution antifungal susceptibility testing, T. rubrum; assay type: cell-based, Trichophyton rubrum; conditions: Trichophyton rubrum, 80% inhibition, read-out: minimum inhibitory concentration (MIC)
Protocol: as §1

[1] = 24 h, isolate 07-3006, 24 hours
[2] = 24 h, isolate 07-3011, 24 hours
[3] = 24 h, isolate 07-3012, 24 hours
[4] = 48 h, isolate 07-3006, 48 hours
[5] = 48 h, isolate 07-3011, 48 hours
[6] = 48 h, isolate 07-3012, 48 hours
[7] = 24 h, isolate 07-2964, 24 hours
[8] = 24 h, isolate 07-2965, 24 hours
[9] = 24 h, isolate 07-3013, 24 hours
[10] = 48 h, isolate 07-2964, 48 hours
[11] = 48 h, isolate 07-2965, 48 hours
[12] = 48 h, isolate 07-3013, 48 hours
[13] = 24 h, isolate 07-2665, 24 hours
[14] = 24 h, isolate 07-2737, 24 hours
[15] = 24 h, isolate 07-2829, 24 hours
[16] = 48 h, isolate 07-2665, 48 hours
[17] = 48 h, isolate 07-2737, 48 hours
[18] = 48 h, isolate 07-2829, 48 hours
[19] = 24 h, isolate 07-1870, 24 hours
[20] = 24 h, isolate 07-2044, 24 hours
[21] = 24 h, isolate 07-2078, 24 hours
[22] = 48 h, isolate 07-1870, 48 hours
[23] = 48 h, isolate 07-2044, 48 hours
[24] = 48 h, isolate 07-2078, 48 hours
[25] = 24 h, isolate 07-1399, 24 hours
[26] = 24 h, isolate 07-1755, 24 hours
[27] = 24 h, isolate 07-1867, 24 hours
[28] = 48 h, isolate 07-1399, 48 hours
[29] = 48 h, isolate 07-1755, 48 hours
[30] = 48 h, isolate 07-1867, 48 hours
[31] = 24 h, isolate 07-1333, 24 hours
[32] = 24 h, isolate 07-1502, 24 hours
[33] = 24 h, isolate 07-1601, 24 hours
[34] = 48 h, isolate 07-1333, 48 hours
[35] = 48 h, isolate 07-1502, 48 hours
[36] = 48 h, isolate 07-1601, 48 hours
[37] = 24 h, isolate 06-4126, 24 hours
[38] = 24 h, isolate 07-2039, 24 hours
[39] = 48 h, isolate 06-4126, 48 hours
[40] = 48 h, isolate 07-2039, 48 hours
[41] = 24 h, isolate 07-1743, 24 hours
[42] = 24 h, isolate 07-2055, 24 hours
[43] = 48 h, isolate 07-1743, 48 hours
[44] = 48 h, isolate 07-2055, 48 hours

With Nc1ccc(NC(=O)CCCCCNC(=O)c2ccccc2S)cc1 [Compound 209, 2-Mercapto-N-[5-(4-Aminophenylcarbamoyl)-pentyl]benzamide] the MIC (C. albicans; [1]) was 2 µg/mL (≈ 5.59 µM), the MIC (C. albicans; [2]) was 2 µg/mL (≈ 5.59 µM) and the MIC (C. albicans; [3]) was 2 µg/mL (≈ 5.59 µM). The MIC (C. albicans; [4]) was 32 µg/mL (≈ 89.5 µM), the MIC (C. albicans; [5]) was 32 µg/mL (≈ 89.5 µM) and the MIC (C. albicans; [6]) was 32 µg/mL (≈ 89.5 µM). For the same compound, the MIC (C. glabrata; [7]) was 2 µg/mL (≈ 5.59 µM), the MIC (C. glabrata; [8]) was 2 µg/mL (≈ 5.59 µM) and the MIC (C. glabrata; [9]) was 2 µg/mL (≈ 5.59 µM). The MIC (C. glabrata; [10]) was 32 µg/mL (≈ 89.5 µM), the MIC (C. glabrata; [11]) was 32 µg/mL (≈ 89.5 µM) and the MIC (C. glabrata; [12]) was 32 µg/mL (≈ 89.5 µM). For the same compound, the MIC (C. neoformans; [13]) was 32 µg/mL (≈ 89.5 µM), the MIC (C. neoformans; [14]) was 8 µg/mL (≈ 22.4 µM) and the MIC (C. neoformans; [15]) was 16 µg/mL (≈ 44.8 µM). The MIC (C. neoformans; [16]) was 32 µg/mL (≈ 89.5 µM), the MIC (C. neoformans; [17]) was 16 µg/mL (≈ 44.8 µM) and the MIC (C. neoformans; [18]) was 16 µg/mL (≈ 44.8 µM). It also gave an MIC (R. arrhizus; [19]) of 2 µg/mL (≈ 5.59 µM), an MIC (R. arrhizus; [20]) of 2 µg/mL (≈ 5.59 µM) and an MIC (R. arrhizus; [21]) greater than 64 µg/mL. It also gave an MIC (R. arrhizus; [22]) greater than 64 µg/mL, an MIC (R. arrhizus; [23]) greater than 64 µg/mL and an MIC (R. arrhizus; [24]) greater than 64 µg/mL. For the same compound, the MIC (F. solani; [25]) was greater than 64 µg/mL, the MIC (F. solani; [26]) was greater than 64 µg/mL and the MIC (F. solani; [27]) was greater than 64 µg/mL. For the same compound, the MIC (F. solani; [28]) was greater than 64 µg/mL, the MIC (F. solani; [29]) was greater than 64 µg/mL and the MIC (F. solani; [30]) was greater than 64 µg/mL. For the same compound, the MIC (S. apiospermum; [31]) was 64 µg/mL (≈ 179 µM), the MIC (S. apiospermum; [32]) was 32 µg/mL (≈ 89.5 µM) and the MIC (S. apiospermum; [33]) was 8 µg/mL (≈ 22.4 µM). The MIC (S. apiospermum; [34]) was greater than 64 µg/mL, the MIC (S. apiospermum; [35]) was greater than 64 µg/mL and the MIC (S. apiospermum; [36]) was greater than 64 µg/mL. For the same compound, the MIC (A. fumigatus; 24 h, isolate 05-388, 24 hours) was 16 µg/mL (≈ 44.8 µM), the MIC (A. fumigatus; [37]) was 16 µg/mL (≈ 44.8 µM) and the MIC (A. fumigatus; [38]) was 32 µg/mL (≈ 89.5 µM). It also gave an MIC (A. fumigatus; 48 h, isolate 05-388, 48 hours) greater than 64 µg/mL, an MIC (A. fumigatus; [39]) greater than 64 µg/mL and an MIC (A. fumigatus; [40]) greater than 64 µg/mL. The MIC (T. rubrum; [41]) was 8 µg/mL (≈ 22.4 µM), the MIC (T. rubrum; [42]) was 8 µg/mL (≈ 22.4 µM) and the MIC (T. rubrum; [43]) was 8 µg/mL (≈ 22.4 µM). It also gave an MIC (T. rubrum; [44]) of 8 µg/mL (≈ 22.4 µM).
Work on COc1ccc(S)c(C(=O)NCCCCCC(=O)Nc2ccccc2)c1 [Compound 211] yielded an MIC (C. albicans; [1]) greater than 64 µg/mL, an MIC (C. albicans; [2]) greater than 64 µg/mL and an MIC (C. albicans; [3]) greater than 64 µg/mL. The MIC (C. albicans; [4]) was greater than 64 µg/mL, the MIC (C. albicans; [5]) was greater than 64 µg/mL and the MIC (C. albicans; [6]) was greater than 64 µg/mL. For the same compound, the MIC (C. glabrata; [7]) was greater than 64 µg/mL, the MIC (C. glabrata; [8]) was greater than 64 µg/mL and the MIC (C. glabrata; [9]) was greater than 64 µg/mL. The MIC (C. glabrata; [10]) was greater than 64 µg/mL, the MIC (C. glabrata; [11]) was greater than 64 µg/mL and the MIC (C. glabrata; [12]) was greater than 64 µg/mL. For the same compound, the MIC (C. neoformans; [13]) was 8 µg/mL (≈ 21.5 µM), the MIC (C. neoformans; [14]) was 8 µg/mL (≈ 21.5 µM) and the MIC (C. neoformans; [15]) was 8 µg/mL (≈ 21.5 µM). It also gave an MIC (C. neoformans; [16]) of 16 µg/mL (≈ 43 µM), an MIC (C. neoformans; [17]) of 16 µg/mL (≈ 43 µM) and an MIC (C. neoformans; [18]) of 16 µg/mL (≈ 43 µM). For the same compound, the MIC (R. arrhizus; [19]) was 4 µg/mL (≈ 10.7 µM), the MIC (R. arrhizus; [20]) was 4 µg/mL (≈ 10.7 µM) and the MIC (R. arrhizus; [21]) was 8 µg/mL (≈ 21.5 µM). It also gave an MIC (R. arrhizus; [22]) greater than 64 µg/mL, an MIC (R. arrhizus; [23]) greater than 64 µg/mL and an MIC (R. arrhizus; [24]) greater than 64 µg/mL. For the same compound, the MIC (F. solani; [25]) was 4 µg/mL (≈ 10.7 µM), the MIC (F. solani; [26]) was 4 µg/mL (≈ 10.7 µM) and the MIC (F. solani; [27]) was 2 µg/mL (≈ 5.37 µM). For the same compound, the MIC (F. solani; [28]) was 8 µg/mL (≈ 21.5 µM), the MIC (F. solani; [29]) was 8 µg/mL (≈ 21.5 µM) and the MIC (F. solani; [30]) was 8 µg/mL (≈ 21.5 µM). For the same compound, the MIC (S. apiospermum; [31]) was 2 µg/mL (≈ 5.37 µM), the MIC (S. apiospermum; [32]) was 2 µg/mL (≈ 5.37 µM) and the MIC (S. apiospermum; [33]) was 2 µg/mL (≈ 5.37 µM). The MIC (S. apiospermum; [34]) was 4 µg/mL (≈ 10.7 µM), the MIC (S. apiospermum; [35]) was 4 µg/mL (≈ 10.7 µM) and the MIC (S. apiospermum; [36]) was 4 µg/mL (≈ 10.7 µM). For the same compound, the MIC (A. fumigatus; 24 h, isolate 05-388, 24 hours) was 2 µg/mL (≈ 5.37 µM), the MIC (A. fumigatus; [37]) was 2 µg/mL (≈ 5.37 µM) and the MIC (A. fumigatus; [38]) was 2 µg/mL (≈ 5.37 µM). For the same compound, the MIC (A. fumigatus; 48 h, isolate 05-388, 48 hours) was greater than 64 µg/mL, the MIC (A. fumigatus; [39]) was greater than 64 µg/mL and the MIC (A. fumigatus; [40]) was greater than 64 µg/mL. For the same compound, the MIC (T. rubrum; [41]) was no more than 0.125 µg/mL, the MIC (T. rubrum; [42]) was no more than 0.125 µg/mL and the MIC (T. rubrum; [43]) was no more than 0.125 µg/mL. It also gave an MIC (T. rubrum; [44]) of no more than 0.125 µg/mL.
